Where a SMILES comes first, the peptide text is derived from it. Bridges are numbered along the chain shown (N, C = ends). Where no end group is shown, it is not given here. [ ]: non-standard residue; d: D form.

Usually Kd stands for the constant that tells how readily two partners part at equilibrium. High values mean weaker binding, low ones tighter binding. The term koff denotes the first-order rate constant of dissociation.

In test [1] the target is Fc-fused MET (His-/hFc-tagged human MET ectodomain) (Homo sapiens, UniProt P08581). Briefly: SPR binding kinetics of selected macrocyclic peptides to Fc-fused MET. Particulars: for kon: pH 7.4, read-out: ka. (In SPR one partner is held on a chip, and binding of the other changes the refractive index at the surface.)
Procedure: The binding kinetic constants (ka and kd) and dissociation constant (KD) of each macrocyclic peptide were determined by surface plasmon resonance, SPR (Table 1, Figure S8).
Binding kinetics analysis of peptides by SPR
The binding affinities of selected peptides targeting Fc-fused MET were analyzed by SPR using a Biacore
8K instrument (Cytiva) at 25 °C. The composition of the running buffer was HBS EP+ buffer (10 mM
HEPES pH 7.4, 150 mM NaCl, 3 mM EDTA, and 0.05% (v/v) Surfactant P20) containing 0.1% DMSO.
The target protein, Fc-fused MET, was immobilized on a Biacore sensor chip ProteinG (Cytiva) to 1,500–
2,000 response units. The kinetic constants were determined by a single-cycle kinetics analysis by injecting
five different concentrations (two-fold dilution series) of each peptide at the flow rate of 30 μL min–1.
Binding sensorgrams were fitted using the standard 1:1 interaction model and analyzed using Biacore™
Insight Software (Figure S8) .
Test [2] concerns the target T1, ectodomain of MET fused to Fc (UniProt P08581 25-932).
T1 chain: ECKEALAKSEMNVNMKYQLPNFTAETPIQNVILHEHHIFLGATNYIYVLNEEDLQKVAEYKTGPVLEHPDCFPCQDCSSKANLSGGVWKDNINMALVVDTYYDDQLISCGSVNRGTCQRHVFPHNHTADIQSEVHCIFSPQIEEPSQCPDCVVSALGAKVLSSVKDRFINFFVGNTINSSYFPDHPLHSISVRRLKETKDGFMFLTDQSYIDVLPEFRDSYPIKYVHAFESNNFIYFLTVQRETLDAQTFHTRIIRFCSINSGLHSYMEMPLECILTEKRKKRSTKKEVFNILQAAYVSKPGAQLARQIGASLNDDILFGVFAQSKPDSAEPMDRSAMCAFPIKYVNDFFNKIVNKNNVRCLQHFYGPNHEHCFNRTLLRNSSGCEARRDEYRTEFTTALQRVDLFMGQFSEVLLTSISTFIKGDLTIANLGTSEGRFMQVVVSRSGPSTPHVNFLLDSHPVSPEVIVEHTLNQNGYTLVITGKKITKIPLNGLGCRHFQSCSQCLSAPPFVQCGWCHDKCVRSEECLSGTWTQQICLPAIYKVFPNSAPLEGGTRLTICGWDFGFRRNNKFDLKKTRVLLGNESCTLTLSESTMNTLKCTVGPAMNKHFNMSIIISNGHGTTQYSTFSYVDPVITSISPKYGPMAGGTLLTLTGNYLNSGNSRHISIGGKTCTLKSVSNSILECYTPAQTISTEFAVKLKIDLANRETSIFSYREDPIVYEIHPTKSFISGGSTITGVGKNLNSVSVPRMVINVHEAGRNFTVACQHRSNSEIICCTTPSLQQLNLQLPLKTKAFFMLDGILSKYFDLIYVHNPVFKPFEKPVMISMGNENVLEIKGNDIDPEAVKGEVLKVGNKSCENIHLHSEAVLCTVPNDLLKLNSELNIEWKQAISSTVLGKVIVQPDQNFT
Briefly: SPR.

For test [3], the target named is T2, ectodomain of MET fused to Fc (UniProt P08581 25-932).
T2 construct: MET (hepatocyte growth factor receptor), a receptor tyrosine kinase; also called MET-Fc; Fc-tagged MET
Briefly: SPR; fitted by a 1:1 binding model; who was immobilised and the conditions are in the Supporting Information (not shown). To be noted: both partners purified.

On to `CC[C@H](C)[C@@H]1NC(=O)[C@H](C(C)C)NC(=O)[C@H](Cc2c[nH]c3ccccc23)NC(=O)[C@H](CC(=O)O)NC(=O)[C@H](CO)NC(=O)[C@H](CO)NC(=O)[C@H](CC(=O)O)NC(=O)[C@H](Cc2ccc(O)cc2)NC(=O)[C@H](Cc2ccc(O)cc2)NC(=O)[C@H](CCCCN)NC(=O)[C@H](Cc2c[nH]c3ccccc23)NC(=O)[C@H](CO)NC(=O)[C@H](CC(C)C)NC(=O)[C@H](Cc2ccc(O)cc2)NC(=O)CSC[C@@H](C(=O)NCC(N)=O)NC(=O)[C@H](CO)NC(=O)[C@H](CC(C)C)NC1=O` [14-5] ({CH2CO}-YLSWKYYDSSDWVILSCG-NH2; thioether N-17), for which, in test [1] (SPR conditions as E1), the kd turned out to be 0.00836 s⁻¹. Besides, the kon in test [1] is 129000 M⁻¹ s⁻¹. As to `CC[C@H](C)[C@@H]1NC(=O)[C@H](Cc2ccc(O)cc2)NC(=O)CSC[C@@H](C(=O)NCC(N)=O)NC(=O)[C@H](CCCNC(=N)N)NC(=O)[C@H](C(C)C)NC(=O)[C@H](Cc2ccc(O)cc2)NC(=O)[C@H](C(C)C)NC(=O)[C@H](Cc2c[nH]c3ccccc23)NC(=O)[C@H](CO)NC(=O)[C@H](CCCCN)NC(=O)[C@H](CO)NC(=O)[C@H](CC(=O)O)NC(=O)[C@H](Cc2ccc(O)cc2)NC(=O)[C@H](C(C)C)NC(=O)[C@H](Cc2ccc(O)cc2)NC(=O)[C@H](Cc2c[nH]c3ccccc23)NC(=O)[C@H](CCC(=O)O)NC1=O` [14-6] ({CH2CO}-YIEWYVYDSKSWVYVRCG-NH2; thioether N-17), in test [1] (SPR conditions as E1), the kd turned out to be 0.00564 s⁻¹. Further, the kon in test [1] worked out at 179000 M⁻¹ s⁻¹.

In the case of `CC(C)[C@@H]1NC(=O)[C@H](CCC(=O)O)NC(=O)[C@H](Cc2c[nH]cn2)NC(=O)[C@H]([C@@H](C)O)NC(=O)[C@H](CCCNC(=N)N)NC(=O)[C@H](CCCNC(=N)N)NC(=O)[C@H](CC(N)=O)NC(=O)[C@H](Cc2ccccc2)NC(=O)[C@H](CCC(N)=O)NC(=O)[C@H](CCCNC(=N)N)NC(=O)[C@@H](Cc2ccc(O)cc2)NC(=O)CSC[C@@H](C(=O)NCC(N)=O)NC(=O)[C@H](CC(=O)O)NC(=O)[C@H](CCCNC(=N)N)NC(=O)[C@H](CC(N)=O)NC(=O)[C@H](Cc2c[nH]c3ccccc23)NC1=O` [aMD4, reference compound] ({CH2CO}-[dY]RQFNRRTHEVWNRDCG-NH2; thioether N-16), the Kd in test [1] (KD, SPR conditions as E1, 1:1 binding model) came to 3.67 nM. Besides, the kd in test [1] (SPR conditions as E1) turned out to be 0.00676 s⁻¹. In addition, the kon in test [1] was determined as 1.84e+06 M⁻¹ s⁻¹.

B1: 12–2 (peptide)
chain: {CH2CO}-YYSWSGNVSESVKWNSCG-NH2
modifications: thioether N-17
SMILES: CC(C)[C@@H]1NC(=O)[C@H](CC(N)=O)NC(=O)CNC(=O)[C@H](CO)NC(=O)[C@H](Cc2c[nH]c3ccccc23)NC(=O)[C@H](CO)NC(=O)[C@H](Cc2ccc(O)cc2)NC(=O)[C@H](Cc2ccc(O)cc2)NC(=O)CSC[C@@H](C(=O)NCC(N)=O)NC(=O)[C@H](CO)NC(=O)[C@H](CC(N)=O)NC(=O)[C@H](Cc2c[nH]c3ccccc23)NC(=O)[C@H](CCCCN)NC(=O)[C@H](C(C)C)NC(=O)[C@H](CO)NC(=O)[C@H](CCC(=O)O)NC(=O)[C@H](CO)NC1=O
Turning to B1, in test [2], the off-rate constant (koff) stood at 0.00413 s⁻¹.

B2: 10–6 (peptide)
chain: {CH2CO}-YWWYYWYRDEYLWRTRCG
modifications: thioether N-17 (inferred)
For the molecule B2, the koff in test [2] came to 0.00489 s⁻¹.

B3: 10–4 (peptide)
chain: {CH2CO}-YIEWNRFNSKLWNCNCCG
modifications: thioether N-17; cysteine pairing not given here
Regarding B3, the koff in test [2] is 0.00809 s⁻¹.

B4: 8–3 (peptide)
chain: {CH2CO}-YWYYTFDGRWEEYDAACG
modifications: thioether N-17 (inferred)
In test [3], B4 gave an equilibrium dissociation constant (Kd) of 199 nM and a koff of 0.0464 s⁻¹.

For the origin of these results see PMC11950852, “Diversity Scale of Library Matters: Impact of mRNA Library Diversity Scales on the Discovery of Macrocyclic Peptides Targeting a Protein by the RaPID System” (ACS Central Science, 2025).
